A short description of series [1]: Cytotoxicity, cell growth. The settings on record: human, human embryonic lung (HEL) fibroblasts. The series is classed as cell-based.
Series [2] in a line: Cytotoxicity evaluation on RAW 264.7 macrophages. Format: cell-based. The note with it: mouse.
The test system of series [3] is L. donovani intramacrophage amastigotes. The series is classed as cell-based, Leishmania donovani. The note with it: CC50 RAW 264.7 / IC50 intramacrophage amastigotes.

Consider `Nc1nc2c(ncn2COCCO)c(=O)[nH]1` [Acyclovir (ACV), Acyclovir], for which the CC50 – broadly, the concentration giving 50% cytotoxicity – in series [1] is over 444 µM.
Compound `CCCCCCCCCCCCCCCCOP(=O)([O-])OCC[N+](C)(C)C` [Miltefosine, reference compound] showed a CC50 in series [2] of 52.2 ± 11.1 µM.
The compound `Cc1cn(Cc2ccc(O)c(C=O)c2)c(=O)[nH]c1=O` [Compound 8, 2-Hydroxy-5-((5-methyl-2,4-dioxo-3,4-dihydropyrimidin-1(2H)-yl)methyl) benzaldehyde] had a CC50 in series [2] of over 100 µM.
Turning to `O=Cc1cc(Cn2ccc(=O)[nH]c2=O)ccc1O` [Compound 7, 5-((2,4-Dioxo-3,4-dihydropyrimidin-1(2H)-yl)methyl)-2-hydroxybenzaldehyde], the CC50 in series [2] is over 100 µM.
Compound `Nc1ccn(C[C@@H](CO)OCP(=O)(O)O)c(=O)n1` [Cidofovir (CDV), Cidofovir] returned a CC50 in series [1] of over 317 µM.
Turning to `Nc1nc(O)c2ncn(COC(CO)CO)c2n1` [Ganciclovir (GCV), Ganciclovir], in series [1], the CC50 was over 394 µM.
On to `O=Cc1cc(Cn2cc(F)c(=O)[nH]c2=O)ccc1O` [Compound 9, 5-((5-Fluoro-2,4-dioxo-3,4-dihydropyrimidin-1(2H)-yl)methyl)-2-hydroxybenzaldehyde], for which the CC50 in series [2] is over 100 µM.
`Cc1nn(Cc2ccc(O)c(C=O)c2)c(=O)[nH]c1=O` [Compound 10, 2-Hydroxy-5-((6-methyl-3,5-dioxo-4,5-dihydro-1,2,4-triazin-2(3H)-yl)methyl) benzaldehyde] displayed a CC50 in series [2] of 56.1 ± 16.8 µM. For the same compound, the “SI (CC50/IC50)” value in series [3] amounted to 1.87.
